Source: patent US20150038545A1, “HYDROXYPHENYL PYRROLE COMPOUNDS CONTAINING AN HYDROXAMIC ACID AS HDAC INHIBITORS AND MEDICINAL APPLICATIONS THEREOF” (UNIVERSIDAD DEL PAÍS VASCO, priority 2011, published 2015)

Tests used:
[1] = test system: A375; assay: Cancer cell growth inhibition (CellTiter-Glo), A375; assay type: cell-based, Human; conditions: Melanoma, A375, 72 h treatment
Protocol: (§1) Cell culture-based assays were used to evaluate the ability of compounds of the invention to inhibit cancer cell growth.
(§2) Cells were obtained from the American Type Culture Collection (ATCC). Cells were cultured at 37° C. with 5% CO2 in the appropriate growth medium (see table below), and harvested respectively during the logarithmic growth period and counted with hemocytometer. The cell viability was examined by trypan blue exclusion. Cell concentrations were adjusted to 5.56×10^4 cells/ml with respective medium.
(§3) Stock solutions of test compounds and positive drugs Doxorubicin (Zhejiang, Haizheng, China), Cisplatin (Nanjing Zhiyao, China) and Mitomycin (Zhejiang, Haizheng, China) were prepared in dimethyl sulphoxide (DMSO) or PBS at 20 mM.
(§4) In order to determine the IC50 for each compound, experiments were carried out in 96-well plates and the cell lines seeded at a density of 5,000 cells/well. […] All treatments were performed in triplicate. 10 μl of drug solution was added to each well and incubated for 72 hours. At the end of the incubation, 100 μl of the CellTiter-Glo Reagent were added to each well and the contents were mixed for 2 munites on an orbital shaker to induce cell lysis. The plate was incubated at room temperature for 10 minutes to stabilize luminiscent signal, and luminiscent was recorded. […] In order to calculate IC50 values, dose-responsive curves were fitted using nonlinear regression model with a sigmoidal dose response.

[2] = test system: LoVo; assay: Cancer cell growth inhibition (CellTiter-Glo), LoVo; assay type: cell-based, Human; conditions: Colorectal Cancer, 72 h treatment
Protocol: as §1, §2, §3, §4

[3] = test system: PC-3; assay: Cancer cell growth inhibition (CellTiter-Glo), PC-3; assay type: cell-based, Human; conditions: Prostate Cancer, PC-3, 72 h treatment
Protocol: as §1, §2, §3, §4

[4] = test system: DU145; assay: Cancer cell growth inhibition (CellTiter-Glo), DU145; assay type: cell-based, Human; conditions: Prostate Cancer, DU145, 72 h treatment
Protocol: as §1, §2, §3, §4

[5] = test system: A549; assay: Cancer cell growth inhibition (CellTiter-Glo), A549; assay type: cell-based, Human; conditions: Lung Cancer, A549, 72 h treatment
Protocol: as §1, §2, §3, §4

[6] = test system: Bx-PC-3; assay: Cancer cell growth inhibition (CellTiter-Glo), Bx-PC-3; assay type: cell-based, Human; conditions: Pancreatic Cancer, Bx-PC-3, 72 h treatment
Protocol: as §1, §2, §3, §4

[7] = test system: 786-O; assay: Cancer cell growth inhibition (CellTiter-Glo), 786-O; assay type: cell-based, Human; conditions: Kidney Cancer, 72 h treatment
Protocol: as §1, §2, §3, §4

[8] = test system: SK-MES-1; assay: Cancer cell growth inhibition (CellTiter-Glo), SK-MES-1; assay type: cell-based, Human; conditions: Lung Cancer, SK-MES-1, 72 h treatment
Protocol: as §1, §2, §3, §4

[9] = test system: KB; assay: Cancer cell growth inhibition (CellTiter-Glo), KB; assay type: cell-based, Human; conditions: Oral Cancer, 72 h treatment
Protocol: as §1, §2, §3, §4

[10] = test system: SK-OV-3; assay: Cancer cell growth inhibition (CellTiter-Glo), SK-OV-3; assay type: cell-based, Human; conditions: Ovarian Cancer, SK-OV-3, 72 h treatment
Protocol: as §1, §2, §3, §4

[11] = test system: RPMI-8226; assay: Cancer cell growth inhibition (CellTiter-Glo), RPMI-8226; assay type: cell-based, Human; conditions: Orthotopic Multiple Myeloma, RPMI-8226, 72 h treatment
Protocol: as §1, §2, §3, §4

[12] = test system: LNCaP; assay: Cancer cell growth inhibition (CellTiter-Glo), LNCaP; assay type: cell-based, Human; conditions: Prostate Cancer, 72 h treatment
Protocol: as §1, §2, §3, §4

[13] = test system: NCI-H1703; assay: Cancer cell growth inhibition (CellTiter-Glo), NCI-H1703; assay type: cell-based, Human; conditions: Lung Cancer, NCI-H1703, 72 h treatment
Protocol: as §1, §2, §3, §4

[14] = test system: Calu-6; assay: Cancer cell growth inhibition (CellTiter-Glo), Calu-6; assay type: cell-based, Human; conditions: Lung Cancer, Calu-6, 72 h treatment
Protocol: as §1, §2, §3, §4

[15] = test system: MCF-7; assay: Cancer cell growth inhibition (CellTiter-Glo), MCF-7; assay type: cell-based, Human; conditions: Breast Cancer, MCF-7, 72 h treatment
Protocol: as §1, §2, §3, §4

[16] = test system: PANC-1; assay: Cancer cell growth inhibition (CellTiter-Glo), PANC-1; assay type: cell-based, Human; conditions: Pancreatic Cancer, PANC-1, 72 h treatment
Protocol: as §1, §2, §3, §4

[17] = test system: DLD-1; assay: Cancer cell growth inhibition (CellTiter-Glo), DLD-1; assay type: cell-based, Human; conditions: Colorectal Cancer, DLD-1, 72 h treatment
Protocol: as §1, §2, §3, §4

[18] = test system: U-87MG; assay: Cancer cell growth inhibition (CellTiter-Glo), U-87MG; assay type: cell-based, Human; conditions: Glioblastoma, 72 h treatment
Protocol: as §1, §2, §3, §4

[19] = test system: BGC-823; assay: Cancer cell growth inhibition (CellTiter-Glo), BGC-823; assay type: cell-based, Human; conditions: Gastric Cancer, BGC-823, 72 h treatment
Protocol: as §1, §2, §3, §4

[20] = test system: OVCAR3; assay: Cancer cell growth inhibition (CellTiter-Glo), OVCAR3; assay type: cell-based, Human; conditions: Ovarian Cancer, OVCAR3, 72 h treatment
Protocol: as §1, §2, §3, §4

[21] = test system: SW480; assay: Cancer cell growth inhibition (CellTiter-Glo), SW480; assay type: cell-based, Human; conditions: Colorectal Cancer, SW480, 72 h treatment
Protocol: as §1, §2, §3, §4

[22] = test system: SK-MEL-5; assay: Cancer cell growth inhibition (CellTiter-Glo), SK-MEL-5; assay type: cell-based, Human; conditions: Melanoma, SK-MEL-5, 72 h treatment
Protocol: as §1, §2, §3, §4

[23] = test system: NCI-N87; assay: Cancer cell growth inhibition (CellTiter-Glo), NCI-N87; assay type: cell-based, Human; conditions: Gastric Cancer, NCI-N87, 72 h treatment
Protocol: as §1, §2, §3, §4

[24] = test system: MCG803; assay: Cancer cell growth inhibition (CellTiter-Glo), MCG803; assay type: cell-based, Human; conditions: Gastric Cancer, MCG803, 72 h treatment
Protocol: as §1, §2, §3, §4

[25] = test system: SK-BR-3; assay: Cancer cell growth inhibition (CellTiter-Glo), SK-BR-3; assay type: cell-based, Human; conditions: Breast Cancer, SK-BR-3, 72 h treatment
Protocol: as §1, §2, §3, §4

[26] = test system: NCI-H460; assay: Cancer cell growth inhibition (CellTiter-Glo), NCI-H460; assay type: cell-based, Human; conditions: Lung Cancer, NCI-H460, 72 h treatment
Protocol: as §1, §2, §3, §4

[27] = test system: HT-29; assay: Cancer cell growth inhibition (CellTiter-Glo), HT-29; assay type: cell-based, Human; conditions: Colorectal Cancer, HT-29, 72 h treatment
Protocol: as §1, §2, §3, §4

[28] = test system: K562; assay: Cancer cell growth inhibition (CellTiter-Glo), K562; assay type: cell-based, Human; conditions: CML, K562, 72 h treatment
Protocol: as §1, §2, §3, §4

[29] = test system: Hep3B; assay: Cancer cell growth inhibition (CellTiter-Glo), Hep3B; assay type: cell-based, Human; conditions: Liver Cancer, 72 h treatment
Protocol: as §1, §2, §3, §4

[30] = test system: CNE2; assay: Cancer cell growth inhibition (CellTiter-Glo), CNE2; assay type: cell-based, Human; conditions: Nasopharyngeal, CNE2, 72 h treatment
Protocol: as §1, §2, §3, §4

[31] = test system: HT-1080; assay: Cancer cell growth inhibition (CellTiter-Glo), HT-1080; assay type: cell-based; conditions: Homo sapiens; Fibrosarcoma, HT-1080, 72 h treatment
Protocol: as §1, §2, §3, §4

[32] = test system: 143b; assay: Cancer cell growth inhibition (CellTiter-Glo), 143b; assay type: cell-based; conditions: Homo sapiens, Osteosarcoma, 72 h treatment
Protocol: as §1, §2, §3, §4

[33] = test system: SW620; assay: Cancer cell growth inhibition (CellTiter-Glo), SW620; assay type: cell-based; conditions: Homo sapiens, SW-620; Colorectal Cancer, SW620, 72 h treatment
Protocol: as §1, §2, §3, §4

[34] = test system: BT474; assay: Cancer cell growth inhibition (CellTiter-Glo), BT474; assay type: cell-based; conditions: Homo sapiens, BT-474; Breast Cancer, BT474, 72 h treatment
Protocol: as §1, §2, §3, §4

[35] = test system: Colo205; assay: Cancer cell growth inhibition (CellTiter-Glo), Colo205; assay type: cell-based; conditions: Homo sapiens, COLO 205; Colorectal Cancer, Colo205, 72 h treatment
Protocol: as §1, §2, §3, §4

[36] = test system: SK-HEP-1; assay: Cancer cell growth inhibition (CellTiter-Glo), SK-HEP-1; assay type: cell-based; conditions: Homo sapiens, SK-HEP1; Liver Cancer, SK-HEP-1, 72 h treatment
Protocol: as §1, §2, §3, §4

[37] = test system: HCT-116; assay: Cancer cell growth inhibition (CellTiter-Glo), HCT-116; assay type: cell-based; conditions: Homo sapiens; Colorectal Cancer, HCT-116, 72 h treatment
Protocol: as §1, §2, §3, §4

[38] = test system: MDA-MB-231; assay: Cancer cell growth inhibition (CellTiter-Glo), MDA-MB-231; assay type: cell-based; conditions: Homo sapiens; Breast Cancer, MDA-MB-231, 72 h treatment
Protocol: as §1, §2, §3, §4

[39] = test system: MIAPaCa-2; assay: Cancer cell growth inhibition (CellTiter-Glo), MIAPaCa-2; assay type: cell-based; conditions: Homo sapiens, MIA PaCa-2; Pancreatic Cancer, MIAPaCa-2, 72 h treatment
Protocol: as §1, §2, §3, §4

[40] = test system: HepG2; assay: Cancer cell growth inhibition (CellTiter-Glo), HepG2; assay type: cell-based; conditions: Homo sapiens; Liver Cancer, HepG2, 72 h treatment
Protocol: as §1, §2, §3, §4

## N.N.[Cl][Pt][Cl] [Cisplatin, reference compound]
[1]
  IC50: 3.16 µM
[2]
  IC50: 10.4 µM
[3]
  IC50: 59.5 µM
[4]
  IC50: 1.02 µM
[5]
  IC50: 8.22 µM
[6]
  IC50: 4.73 µM
[7]
  IC50: 3.23 µM
[8]
  IC50: 9.49 µM
[9]
  IC50: 10.4 µM
[10]
  IC50: 9.88 µM
[11]
  IC50: 4.57 µM
[12]
  IC50: 6.51 µM
[13]
  IC50: 7.56 µM
[14]
  IC50: 2.45 µM
[15]
  IC50: 22.2 µM
[16]
  IC50: 22 µM
[17]
  IC50: 11.3 µM
[18]
  IC50: 4.76 µM
[19]
  IC50: 1.15 µM
[20]
  IC50: 4.47 µM
[21]
  IC50: 46.6 µM
[22]
  IC50: 5.81 µM
[23]
  IC50: 4.21 µM
[24]
  IC50: 5.08 µM
[25]
  IC50: 3.18 µM
[26]
  IC50: 1.6 µM
[27]
  IC50: 12.2 µM
[28]
  IC50: 14.8 µM
[29]
  IC50: 3.96 µM
[30]
  IC50: 6.58 µM

## COc1cccc2c1C(=O)c1c(O)c3c(c(O)c1C2=O)C[C@@](O)(C(=O)CO)C[C@@H]3O[C@H]1C[C@H](N)[C@H](O)[C@H](C)O1 [Doxorubicin, reference compound]
[31]
  IC50: 0.27 µM

## CO[C@@]12[C@H](COC(N)=O)C3=C(C(=O)C(C)=C(N)C3=O)N1C[C@@H]1N[C@@H]12 [Mitomycin, reference compound]
[32]
  IC50: 0.64 µM
[33]
  IC50: 1.22 µM
[34]
  IC50: 30.3 µM
[35]
  IC50: 2.67 µM
[36]
  IC50: 8.12 µM
[37]
  IC50: 0.82 µM
[38]
  IC50: 19.8 µM
[39]
  IC50: 0.63 µM
[40]
  IC50: 0.91 µM
